Laboratory results taken from patent US4038410A, “Nitroimidazole derivatives and process for the preparation thereof” (Schering Aktiengesellschaft, priority 1974, dated 1977).
In brackets after ≈: the same amount, converted by molar mass. Where two headings read alike, the source gives them in different places.

Legend:
Trichomonas vaginalis [1] = test: Minimum inhibitory concentration against Trichomonas vaginalis; type: cell-based
Entamoeba histolytica = test: Minimum inhibitory concentration against Entamoeba histolytica; type: cell-based; settings: Table II; for MIC: read-out: Minimum Inhibitory Concentration (MIC) in μg./ml. Against Entamoeba hist.
Trichomonas vaginalis [2] = settings: literature: C. Cosar, Arzneimittelforschung 16, 23 (1966); French Pat. No. 1,212,028; cited from earlier work
[3] = Table II, read-out: Minimum Inhibitory Concentration (MIC) in μg./ml. Against Trich vag.
[4] = Table I, read-out: Minimum Inhibitory Concentration (MIC) in μg./ml. Against Trich. vag.

Row | MIC (Trichomonas vaginalis [1]; [3]) | MIC (Entamoeba histolytica) | Compound | also measured
1 | 0.4 µg/mL (≈ 1.4 µM) |  | Cc1nc(-c2ccco2)ncc1-c1ncc([N+](=O)[O-])n1C [2-(2-Furyl)-4-methyl-5-(1-methyl-5-nitro-2-imidazolyl)-pyrimidine] | 
2 |  |  | Mixture of 1,3-Dimethyl-4-(1-methyl-5-nitro-2-imidazolyl)-pyrazole and 1,5-Dimethyl-4-(1-methyl-5-nitro-2-imidazolyl)-pyrazole | Minimum Inhibitory Concentration (MIC) in μg./ml. Against Entamoeba hist. (Entamoeba histolytica): 12.5 µg/mL; Minimum Inhibitory Concentration (MIC) in μg./ml. Against Trich vag. (Trichomonas vaginalis [1]; Table II): 0.1 µg/mL
3 | 1.6 µg/mL (≈ 9.35 µM) | > 100 µg/mL | Cc1ncc([N+](=O)[O-])n1CCO [Metronidazole, 5-nitro-2-methyl-1-(2-hydroxyethyl)-imidazole, reference compound] | effective against Trichomonas vaginalis (Trichomonas vaginalis [2]): effective; MIC (Trichomonas vaginalis [1]; [4]): 1.6 µg/mL (≈ 9.35 µM)
4 |  |  | CN(C)C=CC(=O)c1ncc([N+](=O)[O-])n1C [3-Dimethylamino-1-(1-methyl-5-nitro-2-imidazolyl)-2-propenone] | MIC (Trichomonas vaginalis [1]; [4]): 0.1 µg/mL (≈ 0.446 µM)
5 | 0.2 µg/mL (≈ 0.965 µM) | 12.5 µg/mL (≈ 60.3 µM) | Cc1[nH]ncc1-c1ncc([N+](=O)[O-])n1C [3(5)-Methyl-4-(1-methyl-5-nitro-2-imidazolyl)-pyrazole] | 
6 | 0.2 µg/mL (≈ 0.638 µM) |  | COc1ccc(-n2ncc(-c3ncc([N+](=O)[O-])n3C)c2C)cc1 [1-p-Anisyl-5-methyl-4-(1-methyl-5-nitro-2-imidazolyl)-pyrazole] | 
7 | 0.2 µg/mL (≈ 0.629 µM) |  | Cc1c(-c2ncc([N+](=O)[O-])n2C)cnn1-c1ccc(Cl)cc1 [1-(4-Chlorophenyl)-5-methyl-4-(1-methyl-5-nitro-2-imidazolyl)-pyrazole] | 
8 | 0.2 µg/mL (≈ 0.796 µM) | 50 µg/mL (≈ 199 µM) | Cc1c(-c2ncc([N+](=O)[O-])n2C)cnn1CCO [2-[5-Methyl-4-(1-methyl-5-nitro-2-imidazolyl)-pyrazolyl]-ethanol] | 
9 | 0.1 µg/mL (≈ 0.427 µM) |  | Cc1nc(N)ncc1-c1ncc([N+](=O)[O-])n1C [4-Methyl-5-(1-methyl-5-nitro-2-imidazolyl)-pyrimidine-2-amine] | 
10 |  |  | Cn1c([N+](=O)[O-])cnc1-c1cc[nH]n1 [3-(1-Methyl-5-nitro-2-imidazolyl)-pyrazole] | MIC (Trichomonas vaginalis [1]; [4]): 0.1 µg/mL (≈ 0.518 µM)
11 |  |  | Mixture of 5-Methyl-4-(1-methyl-5-nitro-2-imidazolyl)-isoxazole and 3-Methyl-4-(1-methyl-5-nitro-2-imidazolyl)-isoxazole | Minimum Inhibitory Concentration (MIC) in μg./ml. Against Entamoeba hist. (Entamoeba histolytica): 50 µg/mL; Minimum Inhibitory Concentration (MIC) in μg./ml. Against Trich vag. (Trichomonas vaginalis [1]; Table II): 0.2 µg/mL
12 |  |  | Cn1nccc1-c1ncc([N+](=O)[O-])n1C [1-Methyl-5-(1-methyl-5-nitro-2-imidazolyl)-pyrazole] | MIC (Trichomonas vaginalis [1]; [4]): 0.05 µg/mL (≈ 0.241 µM)
13 | 0.1 µg/mL (≈ 0.353 µM) | 12.5 µg/mL (≈ 44.1 µM) | Cc1c(-c2ncc([N+](=O)[O-])n2C)cnn1-c1ccccc1 [5-Methyl-4-(1-methyl-5-nitro-2-imidazolyl)-1-phenylpyrazole] | 

Row | Compound | MIC (Trichomonas vaginalis [1]; [3]) | MIC (Entamoeba histolytica) | also measured
14 | Cc1nn([N+](=O)[O-])cc1-c1ncc([N+](=O)[O-])n1C [3-Methyl-4-(1-methyl-5-nitro-2-imidazolyl)-1-nitropyrazole] | 0.4 µg/mL (≈ 1.59 µM) | 25 µg/mL (≈ 99.1 µM) | 
15 | Cc1c(-c2ncc([N+](=O)[O-])n2C)cnn1-c1ccc([N+](=O)[O-])cc1 [5-Methyl-4-(1-methyl-5-nitro-2-imidazolyl)-1-(4-nitrophenyl)-pyrazole] | 0.4 µg/mL (≈ 1.22 µM) |  | 
